System: HEK‐293
Assay: MTT cytotoxicity assay in control cell line HEK-293
Format: cell-based, human
Settings: compound alone, non-tumoral control cell line, read-out: IC50 (μM) in HEK‐293 (mean ± SD)
Experimental: TNBC cell lines (ER^−, PR^−, HER2^−)—MDA‐MB‐231 (ATCC HTB‐26) and MDA‐MB‐468 (ATCC HTB‐132) were procured from ATCC and cultured in Roswell Park Memorial Institute Media (RPMI‐1640) and Dulbecco's Modified Eagle's Medium (DMEM), respectively, supplemented with 10% FBS and 1% Penicillin–Streptomycin solution. Cells were maintained at 5% CO2 at 37°C in a humid atmosphere.[6], [26] The control cell line, Human Embryonic Kidney—HEK‐293 (ATCC CRL‐3216) was also obtained from ATCC and cultured in DMEM.[5], [25]
To evaluate the cytotoxicity profile of the potential EGFR inhibitors (compounds) against TNBC cell lines—MDA‐MB‐231, MDA‐MB‐468, and control cell line HEK293, cells were seeded at a cell density of 5 × 10^3 cells/well in complete medium onto 96‐well plates. Here, the non‐tumoral human embryonic kidney (HEK293) epithelial cells have been utilized as a control cell line to compare the IC50 values of the compounds between cancerous and non‐cancerous cell lines with a big therapeutic window. The use of HEK293 cells as compared to other non‐cancerous cell lines are easy to maintain in culture and the results obtained from HEK293 are highly reproducible and consistent.[27] Briefly, the cells were incubated at 37°C for 12 h to attain morphology. After 12 h, cells were serum starved by replacing the complete media with media containing 2% FBS to synchronize the cells. Post‐12 h of synchronization, cells were treated with an increasing concentration (0.1, 1, 10, 100 μM) of all the compounds (1a, 1b, 1c, 1d, 1e, 1f, 1g, 1h, 1i, 1j, 1k). Separately, TNBC cells were treated with increasing concentration (0.01, 0.1, 1 μM) of Doxorubicin (Sigma‐Aldrich, St Louis, MO, USA) in presence of the selected compounds (1c, 1e, 1g, 1h, 1j, and 1k) at 5 μM concentration or combination of selected compounds (1c, 1e, 1g, 1h, 1j, and 1k) at increasing concentration (1, 2.5, 5, 10 μM) in presence of Doxorubicin (0.01 μM) for 48 h. In addition, the CD24^+‐breast cancer cells and CD24^−/CD44^+‐breast CSC populations, being sorted by Magnetic Activated Cell Sorting (MACS) from MDA‐MB‐231 cells as described previously,[6] were also treated with increasing concentrations of Doxorubicin (0.01–1 μM), in the presence or absence of 1e (10–30 μM), or PD153035 (10 μM) (Sigma‐Aldrich, St Louis, MO, USA). MTT assay was performed to evaluate the cytotoxicity of these compounds against the TNBC cell lines, and the sorted populations as described previously.[6] All the experiments were performed thrice and the IC50 values of the compounds and Doxorubicin were calculated using GraphPad Prism software version 9 (San Diego, CA, USA). Similarly, the percent inhibition of the sorted cell populations by chemotherapeutic drug, doxorubicin in the absence/presence of potent compound 1e or standard EGFR inhibitor, PD153035 was evaluated utilizing GraphPad Prism Version 9 (San Diego, CA, USA).

Work on `c1cncc(C(c2c[nH]c3ccccc23)c2c[nH]c3ccccc23)c1` [1e] yielded an IC50 of 278 ± 13.5 µM.

— article PMC10961089, “Epidermal growth factor receptor inhibition potentiates chemotherapeutics‐mediated sensitization of metastatic breast cancer stem cells” (Cancer Reports, 2024)
